Measurements reported in a compilation of properties of binary mixtures (doi:10.1021/acs.jced.1c00924).

Assay: xn = mol fraction of the nth substance listed
Conditions: 100 kPa

CCO + CCOP(=O)([O-])OCC.CC[n+]1ccn(C)c1
x2 = 0
Conditions | viscosity [mPa·s]
293.15 K | 1.18
298.15 K | 1.11
303.15 K | 0.98
308.15 K | 0.89
313.15 K | 0.82
323.15 K | 0.69
328.15 K | 0.65
333.15 K | 0.6
338.15 K | 0.56

CCOP(=O)([O-])OCC.CC[n+]1ccn(C)c1 + CCO
viscosity [mPa·s]
Conditions | 293.15 K | 298.15 K | 303.15 K | 308.15 K | 313.15 K | 318.15 K | 323.15 K | 328.15 K | 333.15 K | 338.15 K
x1 = 0.1002 | 3.82 | 3.46 | 3.1 | 2.8 | 2.58 | 2.39 | 2.28 | – | 2.05 | 1.94
x1 = 0.1992 | 8.71 | 7.58 | 6.67 | 5.96 | 5.38 | 4.92 | 4.57 | – | 4.06 | 3.86
x1 = 0.2987 | 18.6 | 15.84 | 13.57 | 11.74 | 10.35 | 9.23 | 8.34 | 7.65 | 7 | 6.48
x1 = 0.4007 | 35.9 | – | – | 20.9 | 18 | 15.6 | 13.64 | 12.11 | – | 9.9
x1 = 0.5007 | 65.5 | 52 | 41.8 | 34.4 | 28.6 | 24 | 20.8 | 18.1 | 15.82 | 13.95
x1 = 0.5993 | 106.8 | 83 | 64.6 | 51.6 | 41.6 | 34.2 | 28.8 | – | 20.8 | 18.1
x1 = 0.7003 | – | – | 102.1 | – | 63.3 | 50.3 | – | 33.5 | 28.1 | –
x1 = 0.8 | 256 | 187 | – | 107.6 | 82.5 | 65.4 | 52.6 | 42.7 | 35 | 29.3
x1 = 0.8985 | – | 271 | – | 146.8 | 112.5 | – | 68.7 | 54.6 | 44.5 | 36.5
x1 = 1 | – | 397 | 285 | 209 | – | 117.2 | 91.7 | 71.2 | 57.3 | 46.2
